The test system of the assay is 22Rv1 xenograft tumor. Kind of assay: Antitumor efficacy in 22Rv1 xenograft mice. The class given is in vivo, BALB/c nude mice. The conditions noted are these: comparison study, n = 6; for tumor volume: 20 days, Psa-AR 30 mg/kg i.v. every 2 days x5, enzalutamide 25 mg/kg, pimitespib 15 mg/kg, PBS 1017 mm^3; for median survival: PBS 21 days. The text has this: To evaluate the therapeutic potential and superiority of Psa-AR in prostate cancer, we established subcutaneous xenograft tumor models using AR-mutant 22Rv1 cells.[51] All procedures strictly complied with the Guide for the Care and Use of Laboratory Animals and were approved by the Committee for Animal Research of the National Center for Nanoscience and Technology. When the tumor volume reached ~100 mm³, 22Rv1-bearing mice were randomized into three groups (n = 6/group): the PBS control, Psa-AR, and P-AR groups. Treatments were administered via tail vein injection every other day for five cycles. The tumor volume and body weight were monitored every other day for 20 days (Fig. 6a). […] The individual tumor growth curves for each group are presented in Supplementary Fig. 20. No obvious body weight loss was observed during treatment (Fig. 6c). […] To elucidate the mechanistic basis of tumor suppression, we quantitatively assessed AR and HSP90 protein expression in excised tumor tissues through IF. […] This dual-target degradation profile directly correlates with the observed therapeutic efficacy, validating the assembly driven target engagement and degradation strategy. […] To address the critical limitations of conventional PROTACs, particularly the Hook effect-induced nonlinear pharmacokinetics and narrow therapeutic window. We rigorously evaluated the dose-responsive antitumor efficacy of Psa-AR in 22Rv1 xenograft models. Mice bearing subcutaneous tumors received escalating doses (10, 20, or 30 mg/kg) via intravenous administration every 48 h for five consecutive treatment cycles. The tumor volume and body weight were evaluated for 20 days. Tumor volume was suppressed in a dose-dependent manner, with a mean tumor volume of […], a mean tumor volume of 536 mm^3 at 20 mg/kg and a mean tumor volume of 220 mm^3 at 10 mg/kg (Fig. 6h). The individual tumor growth curves for each group are presented in Supplementary Fig. 21. […] IF analysis of tumor sections provided spatially resolved dose-dependent quantification of AR and HSP90 proteolysis. […] Collectively, the dose-dependent tumor suppression and coordinated target proteolysis observed in the 22Rv1 xenograft model mechanistically validated the therapeutic superiority of in situ self-assembled Psa-AR. To systematically evaluate the therapeutic advantages of the dual-protein targeting strategy of Psa-AR through simultaneous degradation of AR and HSP90 in overcoming tumor drug resistance, this study compared the antitumor efficacy of Psa-AR with that of current clinical regimens (including the AR inhibitor enzalutamide, the HSP90 inhibitor pimitespib, and their combination) in 22Rv1 xenograft models (Fig. 7a). The experimental protocol was designed as follows: When the tumor volume reached ~100 mm³, the tumor-bearing mice were
Fig. 6 In vivo antitumor efficacy of Psa-AR. a Schematic illustration of the tumor inoculation and treatment protocol for 22Rv1 xenograft mice. (n = 6 per group) b Observation of the tumor inhibitory effect on 22Rv1 xenograft mice in PBS, P-AR, or Psa-AR (20 mg/kg in 200 μL of PBS) over 20 days of treatment. c Body weight changes in 22Rv1 xenograft mice in different treatment groups over 20 days. d Kaplan‒Meier survival curves of 22Rv1 xenograft mice in different groups over 20 days of treatment. e Immunofluorescence analysis of AR protein levels in 22Rv1 tumor tissues after treatment with PBS, P-AR, or Psa-AR (20 mg/kg in 200 μL of PBS) for 20 days. Scale bar: 20 μm. f Immunofluorescence analysis of the HSP90 protein levels in 22Rv1 tumor tissues after treatment with PBS, P-AR, or Psa-AR (20 mg/kg in 200 μL of PBS) for 20 days. Scale bar: 20 μm. g Terminal deoxynucleotidyl transferase (TdT) dUTP nick-end labeling (TUNEL) staining of tumors after treatment with PBS, P-AR, or Psa-AR (20 mg/kg in 200 μL of PBS) for 20 days. […]

Structures are written as SMILES.

`CCc1cc(C(N)=O)ccc1-n1nc(C(C)C)c2c(-n3cnc(-c4cnn(C)c4)c3)ccnc21` [pimitespib, reference compound]: the tumor volume worked out at 742 mm^3 and the median survival is recorded as 29 days.

In the case of `CNC(=O)c1ccc(N2C(=S)N(c3ccc(C#N)c(C(F)(F)F)c3)C(=O)C2(C)C)cc1F` [enzalutamide, reference compound], the tumor volume came to 765 mm^3 and the median survival is 27 days.

The values above are taken from publication PMC12521527, “In vivo self-assembled nano-PROTAC for the dual degradation of AR and HSP90 to overcome castration-resistant prostate cancer resistance” (Signal Transduction and Targeted Therapy, 2025).
